Source: the NIST ThermoML archive (doi:10.1021/je800110r)

Conditions: 293.15 K, Liquid, Vibrating tube method

CCCCCCCCCC [decane]
Conditions	mass density [kg/m3]
6746 kPa	735.1
6773 kPa	735
6794 kPa	734.9
6816 kPa	735
6848 kPa	735
6876 kPa	735
6897 kPa	735
6922 kPa	735.2
6945 kPa	735.2
6978 kPa	735.2
7001 kPa	735
7028 kPa	735.2
7050 kPa	735.3
7069 kPa	735.2
7097 kPa	735.2
7122 kPa	735.3
7137 kPa	735.2
7168 kPa	735.4
7187 kPa	735.3
7209 kPa	735.3
7232 kPa	735.3
7257 kPa	735.4
7276 kPa	735.4
7295 kPa	735.4
7318 kPa	735.4
7338 kPa	735.4
7360 kPa	735.4
7390 kPa	735.4
7414 kPa	735.5
7438 kPa	735.6
7460 kPa	735.5
7485 kPa	735.6
7500 kPa	735.6
7514 kPa	735.6
7532 kPa	735.5
7544 kPa	735.6
7559 kPa	735.5
7573 kPa	735.6
7586 kPa	735.6
7603 kPa	735.6
7621 kPa	735.7
7636 kPa	735.6
7649 kPa	735.6
7665 kPa	735.7
7685 kPa	735.6
7701 kPa	735.6
7716 kPa	735.6
7732 kPa	735.7
7748 kPa	735.7
7769 kPa	735.7
7789 kPa	735.7
7803 kPa	735.8
7824 kPa	735.8
7837 kPa	735.8
7854 kPa	735.8
7873 kPa	735.8
7889 kPa	735.8
7910 kPa	735.9
7929 kPa	735.9
7943 kPa	735.9
7963 kPa	735.9
7982 kPa	735.8
7997 kPa	736
8013 kPa	736.1
8030 kPa	735.9
8048 kPa	736
8065 kPa	736
8080 kPa	736
8102 kPa	735.9
8114 kPa	735.9
8137 kPa	736.1
8160 kPa	736
8178 kPa	736.1
8196 kPa	736
8213 kPa	736.1
8234 kPa	736.1
8249 kPa	736.1
8265 kPa	736.1
8289 kPa	736.2
8309 kPa	736.1
8324 kPa	736.2
8342 kPa	736.2
8357 kPa	736.1
8373 kPa	736.2
8396 kPa	736.2
8414 kPa	736.2
8435 kPa	736.2
8456 kPa	736.2
8469 kPa	736.3
8490 kPa	736.2
8512 kPa	736.2
8530 kPa	736.2
8552 kPa	736.3
8577 kPa	736.3
8591 kPa	736.3
8615 kPa	736.4
8638 kPa	736.4
8657 kPa	736.4
8679 kPa	736.3
8696 kPa	736.4
8715 kPa	736.5
8735 kPa	736.4
8752 kPa	736.4
8777 kPa	736.5
8801 kPa	736.5
8818 kPa	736.6
8844 kPa	736.5
8867 kPa	736.5
8885 kPa	736.5
8905 kPa	736.6
8925 kPa	736.5
8946 kPa	736.6
8967 kPa	736.5
8985 kPa	736.6
9006 kPa	736.6
9033 kPa	736.6
9054 kPa	736.6
9077 kPa	736.8
9098 kPa	736.6
9119 kPa	736.7
9137 kPa	736.8
9159 kPa	736.8
9178 kPa	736.8
9206 kPa	736.8
9235 kPa	736.7
9251 kPa	736.8
9280 kPa	736.9
9302 kPa	736.8
9324 kPa	737
9350 kPa	736.9
9370 kPa	736.9
9397 kPa	737
9426 kPa	736.9
9446 kPa	736.9
9469 kPa	736.9
9492 kPa	736.9
9512 kPa	737
